From patent US10260079B2, “Method for producing ergothioneine by using soybean cake powder as nitrogen source in a seed medium” (TIANJIN INSTITUTE OF INDUSTRIAL BIOTECHNOLOGY, CHINESE …, priority 2014, dated 2019)
“And” between values parts separate entries of the source, which are not always exact repeats. Identical values can stand only once. Like-named read-outs stand apart in the source and are kept apart here.

Test system: Pleurotus ostreatus mycelia CGMCC No. 6232
Assay: Shake-flask fermentation, total content of ergothioneine in the fermentation broth by HPLC
Type: cell-based

SMILES: Cl.N [NH4Cl]
- Content of ergothioneine in fermentation broth (NH4Cl 0.5 g/L added in fermentation medium): 127 ± 1.87 mg/L
- Content of ergothioneine in fermentation broth (NH4Cl 1 g/L added in fermentation medium): 133.7 ± 1.04 mg/L
- Content of ergothioneine in fermentation broth (NH4Cl 2 g/L added in fermentation medium): 139.2 ± 1.55 mg/L
- content of ergothioneine improved compared with control group (NH4Cl 4 g/L): 24.4%
- Content of ergothioneine in fermentation broth (NH4Cl 4 g/L added in fermentation medium): 155.4 mg/L and 155.4 ± 2.68 mg/L
- Content of ergothioneine in fermentation broth (NH4Cl 8 g/L added in fermentation medium): 141.8 ± 0.68 mg/L
- Content of ergothioneine in fermentation broth (NH4Cl 12 g/L added in fermentation medium): 128.6 ± 3.53 mg/L

SMILES: [Cl-].[Na+] [NaCl]
- content of ergothioneine improved compared with control group: 6.63%

SMILES: Cc1ncc(C[n+]2csc(CCO)c2C)c(N)n1 [VB1, vitamin B1]
- Content of ergothioneine in fermentation broth (VB1 0.01 g/L added in fermentation medium): 122.7 ± 1.02 mg/L
- Content of ergothioneine in fermentation broth (VB1 0.05 g/L added in fermentation medium): 128.8 ± 2.41 mg/L
- content of ergothioneine improved compared with control group (VB1 0.1 g/L): 11.2%
- Content of ergothioneine in fermentation broth (VB1 0.1 g/L added in fermentation medium): 132.2 mg/L and 132.2 ± 1.39 mg/L
- Content of ergothioneine in fermentation broth (VB1 0.2 g/L added in fermentation medium): 129.6 ± 2.67 mg/L
- Content of ergothioneine in fermentation broth (VB1 0.4 g/L added in fermentation medium): 127 ± 1.86 mg/L
- Content of ergothioneine in fermentation broth (VB1 0.8 g/L added in fermentation medium): 123.3 ± 3.03 mg/L

SMILES: N=C(N)NCCC[C@H](N)C(=O)O [arginine]
- activation at 2000 µg/mL (Pleurotus ostreatus, CGMCC6232, 360 h, read-out: content of ergothioneine improved compared with control group): 12.7%

SMILES: N[C@@H](CC(=O)O)C(=O)O [aspartic acid]
- activation at 5000 µg/mL (Pleurotus ostreatus, CGMCC6232, 360 h, aspartic acid 5 g/L, read-out: content of ergothioneine improved compared with control group): 14.1%
- Content of ergothioneine in fermentation broth (aspartic acid 0.05 g/L added in fermentation medium): 124.1 ± 3.07 mg/L
- Content of ergothioneine in fermentation broth (aspartic acid 0.5 g/L added in fermentation medium): 128 ± 2.51 mg/L
- Content of ergothioneine in fermentation broth (aspartic acid 1 g/L added in fermentation medium): 130.1 ± 4.28 mg/L
- Content of ergothioneine in fermentation broth (aspartic acid 5 g/L added in fermentation medium): 135.9 mg/L and 135.9 ± 3.64 mg/L
- Content of ergothioneine in fermentation broth (aspartic acid 7 g/L added in fermentation medium): 127.9 ± 2.59 mg/L
- Content of ergothioneine in fermentation broth (aspartic acid 9 g/L added in fermentation medium): 123.8 ± 2.88 mg/L

SMILES: C[N+](C)(C)CC(=O)O [betaine]
- activation at 150000 µM (Pleurotus ostreatus, CGMCC6232, 360 h, betaine 150 mmol/L, read-out: content of ergothioneine improved compared with control group): 22%
- Content of ergothioneine in fermentation broth (betaine 50 mmol/L added in fermentation medium): 125.3 ± 2.67 mg/L
- Content of ergothioneine in fermentation broth (betaine 100 mmol/L added in fermentation medium): 130.1 ± 2.14 mg/L
- Content of ergothioneine in fermentation broth (betaine 150 mmol/L added in fermentation medium): 146.6 mg/L and 146.6 ± 2.64 mg/L
- Content of ergothioneine in fermentation broth (betaine 200 mmol/L added in fermentation medium): 129.9 ± 3.34 mg/L
- Content of ergothioneine in fermentation broth (betaine 250 mmol/L added in fermentation medium): 124.8 ± 1.38 mg/L

SMILES: O=C(O)CC(O)(CC(=O)O)C(=O)O [citric acid]
- activation at 400 µg/mL (Pleurotus ostreatus, CGMCC6232, 360 h, citric acid 0.4 g/L, read-out: content of ergothioneine improved compared with control group): 10.4%
- Content of ergothioneine in fermentation broth (citric acid 0.01 g/L added in fermentation medium): 126.9 ± 2.75 mg/L
- Content of ergothioneine in fermentation broth (citric acid 0.05 g/L added in fermentation medium): 130.2 ± 1.31 mg/L
- Content of ergothioneine in fermentation broth (citric acid 0.2 g/L added in fermentation medium): 135.4 ± 0.83 mg/L
- Content of ergothioneine in fermentation broth (citric acid 0.4 g/L added in fermentation medium): 138.3 mg/L and 138.3 ± 2.49 mg/L
- Content of ergothioneine in fermentation broth (citric acid 0.8 g/L added in fermentation medium): 128.4 ± 1.16 mg/L

SMILES: N[C@@H](CS)C(=O)O [cysteine]
- activation at 15000 µM (Pleurotus ostreatus, CGMCC6232, 360 h, cysteine 15 mmol/L added on the 6th day, read-out: content of ergothioneine improved compared with control group): 56%
- activation at 15000 µM (Pleurotus ostreatus, CGMCC6232, 360 h, cysteine 15 mmol/L, read-out: content of ergothioneine improved compared with control group): 46%
- Content of ergothioneine in fermentation broth (cysteine 2 mmol/L added in fermentation medium): 124.8 ± 2.03 mg/L
- Content of ergothioneine in fermentation broth (cysteine 9 mmol/L added in fermentation medium): 140.4 ± 1.83 mg/L
- Content of ergothioneine in fermentation broth (cysteine 15 mmol/L added in fermentation medium): 175.5 mg/L and 175.5 ± 1.36 mg/L
- Content of ergothioneine in fermentation broth (cysteine 15 mmol/L, timing for adding 0 d (before the fermentation)): 170.3 ± 1.92 mg/L
- Content of ergothioneine in fermentation broth (cysteine 15 mmol/L, timing for adding 2 d): 177.4 ± 2.33 mg/L
- Content of ergothioneine in fermentation broth (cysteine 15 mmol/L, timing for adding 4 d): 186.1 ± 1.67 mg/L
- Content of ergothioneine in fermentation broth (cysteine 15 mmol/L, timing for adding 6 d): 193.8 mg/L and 193.8 ± 4.16 mg/L
- Content of ergothioneine in fermentation broth (cysteine 15 mmol/L, timing for adding 8 d): 172.1 ± 1.73 mg/L
- Content of ergothioneine in fermentation broth (cysteine 15 mmol/L, timing for adding 10 d): 156.5 ± 2.52 mg/L
- Content of ergothioneine in fermentation broth (cysteine 25 mmol/L added in fermentation medium): 164.6 ± 4.31 mg/L
- Content of ergothioneine in fermentation broth (cysteine 35 mmol/L added in fermentation medium): 148.1 ± 2.74 mg/L
- Content of ergothioneine in fermentation broth (cysteine 45 mmol/L added in fermentation medium): 126.1 ± 2.99 mg/L
